Test results as given in US20110269811A1, “INHIBITORS OF SEMICARBAZIDE-SENSITIVE AMINE OXIDASE (SSAO) AND VAP-1 MEDIATED ADHESION USEFUL FOR TREATMENT AND PREVENTION OF DISEASES” (priority 2006, published 2011).

Tests used:
P2Y = test: Receptor binding screen, [^35S]dATPαS; set-up: species or system rat; settings: 10 uM Concentration of Compound I-1-Z
[1] = test system: antibody-mediated collagen-induced arthritis; test: Anti-collagen antibody-induced arthritis in mice; type: in vivo; settings: 30 mg/kg, i.p., once daily, days 1-10; FIG. 4
Excerpt: Collagen-induced arthritis (CIA) in mice is widely used as an experimental model for rheumatoid arthritis (RA) in humans. CIA is mediated by autoantibodies to a particular region of type II collagen and complement. The murine CIA model used in this study is called antibody-mediated CIA, and can be induced by i.v. injection of a combination of different anti-type II collagen monoclonal antibodies (Terato K., et al. (1995). Autoimmunity. 22:137). Several compounds have been used to successfully block inflammation in this model, including anti-α1β1 and […] integrins monoclonal antibodies (de Fougerolles A. R. (2000) J. Clin. Invest. 105: 721).
In this example, arthrogen-collagen-induced arthritis antibody kits were purchased from Chemicon International (Temecula, Calif.) and arthritis was induced using the manufacturer's protocol. Mice were injected i.v. with a cocktail of 4 anti-collagen Type II monoclonal antibodies (1.5 mg each) on day 0, followed by i.p. injection of 25 μg lipopolysaccharide (LPS) on day 2. […] Severity of arthritis in each limb was scored for 3-4 weeks as follows: 0=normal; 1=mild redness, slight swelling of ankle or wrist; 2=moderate redness and swelling of ankle or wrist; 3=severe redness and swelling of some digits, ankle and paw; 4=maximally inflamed limb, with a maximum score of 16 per animal. […]

ETB (h) = target: T1, ETB (h) (Homo sapiens, UniProt P24530); test: Receptor binding screen, [^125I]endothelin-1; settings: 10 uM Concentration of Compound I-1-Z; read-out: Mean Value, percent inhibition of control specific binding: ETB (h)
T1 construct: expressed in transfected cells; host or cells: CHO cells
T1 sequence (P24530 27-442): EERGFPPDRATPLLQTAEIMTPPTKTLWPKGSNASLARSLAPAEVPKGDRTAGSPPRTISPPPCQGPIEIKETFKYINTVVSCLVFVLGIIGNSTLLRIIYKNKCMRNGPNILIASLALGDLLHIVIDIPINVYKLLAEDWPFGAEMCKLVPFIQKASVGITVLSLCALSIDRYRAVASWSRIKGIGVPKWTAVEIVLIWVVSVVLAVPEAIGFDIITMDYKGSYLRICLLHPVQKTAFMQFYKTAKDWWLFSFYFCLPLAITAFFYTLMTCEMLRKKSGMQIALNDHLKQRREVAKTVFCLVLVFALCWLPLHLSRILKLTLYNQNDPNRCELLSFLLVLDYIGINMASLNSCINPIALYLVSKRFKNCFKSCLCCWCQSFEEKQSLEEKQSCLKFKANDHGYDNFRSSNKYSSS

CCR1 (h) = target: T2, CCR1 (h) (Homo sapiens, UniProt P32246); test: Receptor binding screen, [^125I]MIP-1α; settings: 10 uM Concentration of Compound I-1-Z; read-out: Mean Value, percent inhibition of control specific binding: CCR1 (h)
T2 construct: expressed in transfected cells; host or cells: HEK-293 cells
T2 sequence (P32246 whole entry): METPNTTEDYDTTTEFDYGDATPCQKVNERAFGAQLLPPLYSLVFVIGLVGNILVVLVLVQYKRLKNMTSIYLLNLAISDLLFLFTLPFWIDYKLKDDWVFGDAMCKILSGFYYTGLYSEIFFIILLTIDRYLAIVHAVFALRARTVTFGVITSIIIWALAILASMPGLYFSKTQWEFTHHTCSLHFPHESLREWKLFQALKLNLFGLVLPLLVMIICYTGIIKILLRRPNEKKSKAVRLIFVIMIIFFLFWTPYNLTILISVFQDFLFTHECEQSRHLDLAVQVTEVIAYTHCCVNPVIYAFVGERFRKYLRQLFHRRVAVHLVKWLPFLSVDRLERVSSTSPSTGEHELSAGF

PACAP (PAC1) (h) = target: T3, PACAP (PAC1) (h) (Homo sapiens, UniProt P41586); test: Receptor binding screen, [^125I]PACAP1-27; settings: 10 uM Concentration of Compound I-1-Z; read-out: Mean Value, percent inhibition of control specific binding: PACAP (PAC1) (h)
T3 construct: expressed in transfected cells; host or cells: CHO cells
T3 sequence (P41586 21-468): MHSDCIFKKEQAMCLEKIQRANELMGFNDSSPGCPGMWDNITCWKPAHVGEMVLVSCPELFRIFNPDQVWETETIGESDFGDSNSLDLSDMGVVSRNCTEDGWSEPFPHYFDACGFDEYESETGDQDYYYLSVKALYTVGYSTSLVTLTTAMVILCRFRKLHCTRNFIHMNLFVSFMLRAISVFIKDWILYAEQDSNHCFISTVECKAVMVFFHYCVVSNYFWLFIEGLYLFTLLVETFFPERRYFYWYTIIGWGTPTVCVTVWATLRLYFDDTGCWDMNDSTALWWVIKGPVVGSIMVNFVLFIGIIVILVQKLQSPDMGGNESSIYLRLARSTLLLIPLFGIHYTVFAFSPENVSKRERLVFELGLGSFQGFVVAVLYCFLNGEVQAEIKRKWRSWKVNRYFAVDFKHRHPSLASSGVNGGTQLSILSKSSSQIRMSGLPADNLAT

H2 (h) = target: T4, H2 (h) (Homo sapiens, UniProt P25021); test: Receptor binding screen, [^125I]APT; settings: 10 uM Concentration of Compound I-1-Z; read-out: Mean Value, percent inhibition of control specific binding: H2 (h)
T4 construct: expressed in transfected cells; host or cells: CHO cells
T4 sequence (P25021 whole entry): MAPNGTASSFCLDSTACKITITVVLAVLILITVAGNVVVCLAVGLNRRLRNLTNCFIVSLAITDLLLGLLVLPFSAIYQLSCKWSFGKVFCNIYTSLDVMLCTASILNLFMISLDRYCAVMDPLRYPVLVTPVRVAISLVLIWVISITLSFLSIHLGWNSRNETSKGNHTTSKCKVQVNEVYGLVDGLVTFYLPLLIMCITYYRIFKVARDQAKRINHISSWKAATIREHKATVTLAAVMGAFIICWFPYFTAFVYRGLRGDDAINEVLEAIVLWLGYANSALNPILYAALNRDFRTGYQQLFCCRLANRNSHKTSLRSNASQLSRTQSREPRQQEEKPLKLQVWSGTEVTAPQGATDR

5-HT1B = target: T5, 5-HT1B (Rattus norvegicus, UniProt P28564); test: Receptor binding screen, [^125I]CYP; settings: probe [125I]CYP (radioligand), 10 uM Concentration of Compound I-1-Z, read-out: Mean Value, percent inhibition of control specific binding: 5-HT1B
T5 construct: rat cerebral cortex; from tissue; host or cells: rat cerebral cortex
T5 sequence (P28564 whole entry): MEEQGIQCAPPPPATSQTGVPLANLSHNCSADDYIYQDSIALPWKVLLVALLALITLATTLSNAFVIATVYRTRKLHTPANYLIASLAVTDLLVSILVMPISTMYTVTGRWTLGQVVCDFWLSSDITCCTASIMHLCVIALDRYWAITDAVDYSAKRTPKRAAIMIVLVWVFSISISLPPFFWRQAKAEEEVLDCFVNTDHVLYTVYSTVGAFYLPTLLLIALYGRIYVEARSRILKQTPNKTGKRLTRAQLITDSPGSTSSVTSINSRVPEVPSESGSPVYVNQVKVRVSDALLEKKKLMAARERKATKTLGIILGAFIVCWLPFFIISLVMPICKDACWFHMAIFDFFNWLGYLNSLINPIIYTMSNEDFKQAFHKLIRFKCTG

PCP = test: Receptor binding screen, [^3H]TCP; set-up: species or system rat; settings: 10 uM Concentration of Compound I-1-Z
D1 (h) = target: T6, D1 (h) (Homo sapiens, UniProt P21728); test: Receptor binding screen, [^3H]SCH 23390; settings: 10 uM Concentration of Compound I-1-Z; read-out: Mean Value, percent inhibition of control specific binding: D1 (h)
T6 construct: expressed in transfected cells; host or cells: CHO cells
T6 sequence (P21728 whole entry): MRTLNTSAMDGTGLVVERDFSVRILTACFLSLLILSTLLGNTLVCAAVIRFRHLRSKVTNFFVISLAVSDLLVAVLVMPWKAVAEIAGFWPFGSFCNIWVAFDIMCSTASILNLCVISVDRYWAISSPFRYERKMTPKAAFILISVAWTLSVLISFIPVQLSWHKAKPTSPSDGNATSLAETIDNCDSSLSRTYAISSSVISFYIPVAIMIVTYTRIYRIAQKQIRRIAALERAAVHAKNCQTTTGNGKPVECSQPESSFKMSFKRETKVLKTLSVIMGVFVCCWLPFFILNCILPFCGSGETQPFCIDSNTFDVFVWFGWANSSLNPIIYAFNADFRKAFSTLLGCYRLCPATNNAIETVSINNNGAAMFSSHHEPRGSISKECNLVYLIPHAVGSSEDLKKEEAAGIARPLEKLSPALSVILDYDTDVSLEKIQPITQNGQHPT

NK2 (h) = target: T7, NK2 (h) (Homo sapiens, UniProt P21452); test: Receptor binding screen, [^125I]NKA; settings: 10 uM Concentration of Compound I-1-Z; read-out: Mean Value, percent inhibition of control specific binding: NK2 (h)
T7 construct: expressed in transfected cells; host or cells: CHO cells
T7 sequence (P21452 whole entry): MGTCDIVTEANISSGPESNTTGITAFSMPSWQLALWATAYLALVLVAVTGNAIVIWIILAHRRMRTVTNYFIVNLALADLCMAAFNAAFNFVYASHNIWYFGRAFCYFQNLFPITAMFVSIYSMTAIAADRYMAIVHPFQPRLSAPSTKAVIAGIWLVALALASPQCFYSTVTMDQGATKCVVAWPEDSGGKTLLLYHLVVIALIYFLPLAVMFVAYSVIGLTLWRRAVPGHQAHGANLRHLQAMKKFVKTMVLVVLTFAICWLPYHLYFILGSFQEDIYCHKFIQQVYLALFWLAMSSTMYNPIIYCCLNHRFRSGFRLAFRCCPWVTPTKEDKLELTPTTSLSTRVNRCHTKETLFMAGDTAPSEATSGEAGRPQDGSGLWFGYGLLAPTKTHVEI

δ2 (h) (DOP) = target: T8, δ2 (h) (DOP) (Homo sapiens, UniProt P41143); test: Receptor binding screen, [^3H]DADLE; settings: 10 uM Concentration of Compound I-1-Z; read-out: Mean Value, percent inhibition of control specific binding: δ2 (h) (DOP)
T8 construct: expressed in transfected cells; host or cells: CHO cells
T8 sequence (P41143 whole entry): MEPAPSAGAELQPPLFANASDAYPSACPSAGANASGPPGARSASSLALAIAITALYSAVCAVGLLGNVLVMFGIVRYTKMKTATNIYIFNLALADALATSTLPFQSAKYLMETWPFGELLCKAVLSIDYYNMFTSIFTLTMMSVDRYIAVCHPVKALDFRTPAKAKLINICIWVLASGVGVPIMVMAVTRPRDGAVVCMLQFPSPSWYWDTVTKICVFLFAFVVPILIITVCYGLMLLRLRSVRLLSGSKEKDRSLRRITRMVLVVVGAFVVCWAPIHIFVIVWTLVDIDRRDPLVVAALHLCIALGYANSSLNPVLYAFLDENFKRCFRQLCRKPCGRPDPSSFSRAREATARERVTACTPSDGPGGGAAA
Protocol: For Table 4 below, the specific ligand binding to the receptors is defined as the difference between the total binding and the nonspecific binding determined in the presence of an excess of unlabelled ligand. The results are expressed as a percent inhibition of control specific binding obtained in the presence of Compound I-1-Z. The IC50 values (concentration causing a half-maximal inhibition of control specific binding) and Hill coefficients (nH) were determined by non-linear regression analysis of the competition curves using Hill equation curve fitting. The inhibition constants (Ki) were calculated from the Cheng Prusoff equation (Ki=IC50/(1+(L/KD)), where L=concentration of radioligand in the assay, and KD=affinity of the radioligand for the receptor). In each experiment, the respective reference compound was tested concurrently with Compound I-1-Z in order to assess the assay suitability.

5-HT1A (h) = target: T9, 5-HT1A (h) (Homo sapiens, UniProt P08908); test: Receptor binding screen, [^3H]8-OH-DPAT; settings: 10 uM Concentration of Compound I-1-Z; read-out: Mean Value, percent inhibition of control specific binding: 5-HT1A (h)
T9 construct: expressed in transfected cells; host or cells: HEK-293 cells
T9 sequence (P08908 whole entry): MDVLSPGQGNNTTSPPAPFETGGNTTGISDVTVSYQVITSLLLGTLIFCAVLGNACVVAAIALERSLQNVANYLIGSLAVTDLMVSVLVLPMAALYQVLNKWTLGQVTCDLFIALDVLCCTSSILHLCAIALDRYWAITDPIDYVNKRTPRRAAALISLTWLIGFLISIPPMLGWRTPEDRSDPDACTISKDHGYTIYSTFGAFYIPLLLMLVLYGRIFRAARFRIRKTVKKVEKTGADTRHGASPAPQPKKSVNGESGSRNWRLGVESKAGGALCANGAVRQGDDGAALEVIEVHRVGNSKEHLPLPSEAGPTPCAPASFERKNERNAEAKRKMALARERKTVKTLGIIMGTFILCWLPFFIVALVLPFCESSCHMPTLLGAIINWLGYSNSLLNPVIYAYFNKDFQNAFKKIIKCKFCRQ

[2] = test system: Ca^2+ channel (L, verapamil site) (phenylalkylamines); test: Receptor binding screen, [^3H](−)D 888; set-up: species or system rat; settings: 10 uM Concentration of Compound I-1-Z
β1 (h) = target: T10, β1 (h) (Homo sapiens, UniProt P08588); test: Receptor binding screen, [^3H](−)CGP 12177; settings: 10 uM Concentration of Compound I-1-Z; read-out: Mean Value, percent inhibition of control specific binding: β1 (h)
T10 construct: expressed in transfected cells; host or cells: HEK-293 cells
T10 sequence (P08588 whole entry): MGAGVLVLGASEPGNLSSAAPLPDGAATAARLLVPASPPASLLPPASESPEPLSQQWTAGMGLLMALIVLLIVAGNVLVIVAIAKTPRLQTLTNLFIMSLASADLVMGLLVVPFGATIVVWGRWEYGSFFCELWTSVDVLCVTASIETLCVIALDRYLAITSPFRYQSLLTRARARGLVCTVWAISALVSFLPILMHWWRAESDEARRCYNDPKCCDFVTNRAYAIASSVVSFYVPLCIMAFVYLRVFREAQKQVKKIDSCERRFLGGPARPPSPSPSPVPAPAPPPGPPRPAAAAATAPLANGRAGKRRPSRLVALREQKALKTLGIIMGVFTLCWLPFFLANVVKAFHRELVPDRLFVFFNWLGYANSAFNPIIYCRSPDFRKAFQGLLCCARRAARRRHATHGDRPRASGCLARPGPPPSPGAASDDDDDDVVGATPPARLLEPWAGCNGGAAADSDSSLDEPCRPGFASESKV

NK1 (h) = target: T11, NK1 (h) (Homo sapiens, UniProt P25103); test: Receptor binding screen, [^125I]BH-SP, U-373MG cells; settings: 10 uM Concentration of Compound I-1-Z; read-out: Mean Value, percent inhibition of control specific binding: NK1 (h)
T11 construct: U-373MG cells; endogenous in cells; host or cells: U-373MG cells
T11 sequence (P25103 whole entry): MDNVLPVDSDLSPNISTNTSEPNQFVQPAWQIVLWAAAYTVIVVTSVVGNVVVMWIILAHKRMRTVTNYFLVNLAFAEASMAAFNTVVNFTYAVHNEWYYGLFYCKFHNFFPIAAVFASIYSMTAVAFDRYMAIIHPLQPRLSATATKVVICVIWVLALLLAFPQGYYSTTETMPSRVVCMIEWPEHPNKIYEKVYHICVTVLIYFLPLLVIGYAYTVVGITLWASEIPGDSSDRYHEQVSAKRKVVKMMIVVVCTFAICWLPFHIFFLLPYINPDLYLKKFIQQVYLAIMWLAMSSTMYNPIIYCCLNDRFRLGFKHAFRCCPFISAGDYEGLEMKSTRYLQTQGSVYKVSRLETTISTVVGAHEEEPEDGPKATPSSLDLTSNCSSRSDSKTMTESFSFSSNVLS

COc1ccc(C/C(=C/F)CN)cc1.Cl [Compound I-1-Z, (Z)-3-Fluoro-2-(4-methoxybenzyl)-allylamine hydrochloride]
Mean Value, percent inhibition of control specific binding: P2Y (P2Y): −1% | final arthritis score and paw swelling [1]: clearly reduced | inhibition at 10 µM (ETB (h)): -5% | inhibition at 10 µM (CCR1 (h)): 3% | inhibition at 10 µM (PACAP (PAC1) (h)): 5% | inhibition at 10 µM (H2 (h)): 16% | inhibition at 10 µM (5-HT1B): 16% | Mean Value, percent inhibition of control specific binding: PCP (PCP): −12% | inhibition at 10 µM (D1 (h)): -2% | inhibition at 10 µM (NK2 (h)): 3% | inhibition at 10 µM (δ2 (h) (DOP)): 0% | inhibition at 10 µM (5-HT1A (h)): 34% | Mean Value, percent inhibition of control specific binding: Ca^2+ channel (L, verapamil site) (phenylalkylamines) [2]: 14% | inhibition at 10 µM (β1 (h)): 5% | inhibition at 10 µM (NK1 (h)): -6%
